In one series the test system is rats. Conditions: OECD guideline 408, 90-days oral subchronic toxicity study; cited from earlier work.
Series [1] concerns T-84 (human colorectal adenocarcinoma line). Conditions: T-84 cells, 72 hours induction, SRB; means±SEM of six independent determinations. From the text:
(§1) A-549 (Reference CCL-185 of the American Type Culture Collection): It is a tumor line of basal alveolar epithelium that comes from a pulmonary adenocarcinoma removed from a patient. These cells are squamous and can synthesize lecithin. T-84 (Reference CCL-248 of the American Type Culture Collection): It is a tumor line with epithelial morphology, isolated from a pulmonary metastasis of a colorectal carcinoma of a patient. These cells present receptors for a large group of hormones and neurotransmitters, and they produce carcinoembryonic antigen (CEA) and keratin, among other cellular products.
(§2) Adherent cells (MCF-7, A-549, T-84, HT-29 and Panc-1), were detached from the surface of the culture flasks, using 3-4 ml of trypsin 1×, and left to act for 5-10 minutes in an incubator at 37° C. with 5% CO2. Once the cells were detached, the trypsinization was stopped, adding to the medium flask the same amount of complete culture as trypsin used to detach cells. After resuspending the mixture of trypsin and detached cells several times, the content of the culture flask was transferred to a sterile tube to centrifugation it for 5 minutes at 1500-1600 rpm.
(§3) Adherent cells were incubated for 24 hours to get cells attached to the surface of the flask. […]

Series [2] deals with A-549 (human lung adenocarcinoma line). Conditions: A-549 cells, 72 hours induction, SRB; means±SEM of six independent determinations.
Excerpt: as §1, §2, §3

The test system of series [3] is Panc-1 (human pancreatic carcinoma line). Conditions: Panc-1 cells, 72 hours induction, SRB; means±SEM of six independent determinations. As for the experimental part:
as §2
(§4) Adherent cells were incubated for 24 hours to get cells attached to the surface of the flask. Then, the culture medium was replaced for a new medium, to which increasing concentrations of PTSO had been added, and the induction was conducted for 72 hours.

Series [4] concerns HT-29 (human colorectal carcinoma line). The note with it: HT-29 cells, 72 hours induction, SRB; means±SEM of six independent determinations. As to the method:
as §2, §4

The test system of series [5] is MCF-7 (human breast adenocarcinoma line). As to the method: as §2, §4
The test system of series [6] is Jurkat (human tumor T lymphocytes line). As to the method: as §4
Series [7] concerns normal human peripheral blood mononuclear cells (PBMCs). The note with it: normal PBMCs from healthy volunteers, 72 hours induction, MTT; means±SEM of six independent determinations. As for the experimental part:
as §4

Take `CCCSS(=O)(=O)CCC` [PTSO, propyl propane thiosulfonate]: the “no-observed-adverse-effect level (NOAEL)” value with rats is reported as 55 mg/kg/day. The IC50 came out at 37.3 µM in series [1]; 38.6 µM in series [2]; 33.8 µM in series [3]; 50.8 µM in series [4]; 6.9 µM in series [5] (MCF-7 cells, 72 hours induction, SRB, means±SEM of six independent determinations); 15.7 µM in series [6] (Jurkat cells, 72 hours induction, MTT, means±SEM of six independent determinations). The same compound yielded an IC50 in series [7] of 248 µM. Besides, the “in vitro T.I (IC50 Normal Line/IC50 Tumor Line)” value in series [5] (IC50 PBMCs / IC50 MCF-7 tumor line) was 36.0; in series [6] (IC50 PBMCs / IC50 Jurkat tumor line), 15.8.

As a reminder, the IC50 is the point on the concentration scale where inhibition reaches its midpoint.

The record behind these values is patent US20240226042A9, “A PROPYL PROPANE THI[…] FOR USE AS ANTITUMORAL” (DMC RESEARCH CENTER, SL, priority 2021, published 2024).
